Values quoted from earlier work, collected in patent US6632839B2, “Capsicum based disinfectant and sterilizant” (priority 1997, dated 2003).
Read-outs that look alike come from different tables or passages of the source.

Conditions: for Solubility in water: water / cold water

## COc1cc(CNC(=O)CCCC/C=C/C(C)C)ccc1O [Capsaicin, N-vanillyl-8-methyl-6-(E)-noneamide]
  Solubility in alcohol, fats, oils: very soluble in fats, oils and alcohol
  Solubility in water: sparingly soluble in water
Listed as capsaicin
  Solubility in alcohol, fats, oils: soluble in alcohol
  Solubility in water: insoluble in cold water
